Results as given in patent US10774086B2, “GSK-3 inhibitors” (BRISTOL-MYERS SQUIBB COMPANY, priority 2016, dated 2020).

What was measured:
[1] = system: pTau; assay: pTau assay; assay type: cell-based
[2] = biological target: GSK3β (Homo sapiens (Human), UniProt P49841); assay: GSK3β kinase assay (Caliper LabChip, fluoresceinated peptide substrate); assay type: biochemical; settings: 250 pM enzyme, 20 uM ATP, 1.5 uM peptide, 20 hours room temperature; read-out: GSK3β IC50 (first value of GSK3β/GSK3α)
GSK3β, sequence (P49841 whole entry, species assumed): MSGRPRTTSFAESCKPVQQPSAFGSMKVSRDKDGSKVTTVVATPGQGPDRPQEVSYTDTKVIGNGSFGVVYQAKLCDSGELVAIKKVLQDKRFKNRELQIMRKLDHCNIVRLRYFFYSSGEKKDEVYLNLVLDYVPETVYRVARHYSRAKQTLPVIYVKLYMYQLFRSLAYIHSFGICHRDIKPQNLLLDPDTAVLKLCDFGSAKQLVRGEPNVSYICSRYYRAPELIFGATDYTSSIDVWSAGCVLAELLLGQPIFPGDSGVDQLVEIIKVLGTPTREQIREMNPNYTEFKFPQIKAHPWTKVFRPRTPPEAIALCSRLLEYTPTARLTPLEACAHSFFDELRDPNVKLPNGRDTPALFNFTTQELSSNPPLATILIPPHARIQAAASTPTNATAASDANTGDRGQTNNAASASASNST
Method: The kinase assay was performed in V-bottom 384-well plates. […] The reaction was incubated at room temperature for 20 hours and terminated by adding 45 μl of 35 mM EDTA to each sample. The reaction mixture was analyzed on the Caliper LabChip3000 (Caliper, Hopkinton, Mass.) by electrophoretic separation of the unphosphorylated substrate and phosphorylated product. […] Compounds were dissolved at 10 mM in dimethylsulfoxide (DMSO) and evaluated at eleven concentrations. IC50 values were derived by non-linear regression analysis.

[3] = biological target: GSK3α (Homo sapiens (Human), UniProt P49840); assay: GSK3α kinase assay (Caliper LabChip, fluoresceinated peptide substrate); assay type: biochemical; settings: 250 pM enzyme, 20 uM ATP, 1.5 uM peptide, 20 hours room temperature; read-out: GSK3α IC50 (second value of GSK3β/GSK3α)
GSK3α, sequence (P49840 whole entry, species assumed): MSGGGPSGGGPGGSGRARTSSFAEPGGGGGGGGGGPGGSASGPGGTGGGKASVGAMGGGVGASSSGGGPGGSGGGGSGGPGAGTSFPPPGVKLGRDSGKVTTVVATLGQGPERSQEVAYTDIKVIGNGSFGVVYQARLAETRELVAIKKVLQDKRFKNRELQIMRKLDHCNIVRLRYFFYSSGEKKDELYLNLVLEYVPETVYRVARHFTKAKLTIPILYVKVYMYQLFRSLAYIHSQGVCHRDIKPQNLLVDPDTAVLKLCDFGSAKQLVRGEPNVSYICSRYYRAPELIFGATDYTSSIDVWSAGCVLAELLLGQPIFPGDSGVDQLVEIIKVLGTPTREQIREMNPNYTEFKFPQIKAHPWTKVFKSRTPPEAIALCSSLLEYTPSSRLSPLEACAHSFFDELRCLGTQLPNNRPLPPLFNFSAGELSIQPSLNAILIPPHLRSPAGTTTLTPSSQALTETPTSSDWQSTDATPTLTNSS
Excerpt: IC50 values were derived by non-linear regression analysis.

Row | SMILES | IC50 [1] [nM] | IC50 [2] [nM] | IC50 [3] [nM]
1 | CC1CN(c2ccncc2NC(=O)c2ccnn3cc(-c4ccccc4)nc23)CCO1 (racemic) [Example 14, N-(4-(2-Methylmorpholino)pyridin-3-yl)-2-phenylimidazo[1,2-b]pyridazine-8-carboxamide] | 58 | 0.75 | 0.4
2 | CC1CN(c2ccncc2NC(=O)c2ccnn3cc(-c4ccccc4)nc23)CCO1 (single isomer, unassigned) [Example 15, N-(4-(2-Methylmorpholino)pyridin-3-yl)-2-phenylimidazo[1,2-b]pyridazine-8-carboxamide] | 9.2 | 0.2 | 0.09
3 | CC1CN(c2ccncc2NC(=O)c2ccnn3cc(-c4ccccc4)nc23)CCO1 (single isomer, unassigned) [Example 16, N-(4-(2-Methylmorpholino)pyridin-3-yl)-2-phenylimidazo[1,2-b]pyridazine-8-carboxamide] | 86 | 0.8 | 0.3
4 | O=C(Nc1cccnc1)c1ccnn2cc(-c3ccccc3)nc12 [Example 1, 2-Phenyl-N-(pyridin-3-yl)imidazo[1,2-b]pyridazine-8-carboxamide] | 660 | – | –
5 | Cc1ccncc1NC(=O)c1ccnn2cc(-c3ccccc3)nc12 [Example 2, N-(4-Methylpyridin-3-yl)-2-phenylimidazo[1,2-b]pyridazine-8-carboxamide] | 250 | 3.5 | 0.8
6 | CC(C)Oc1ccncc1NC(=O)c1ccnn2cc(-c3ccccc3)nc12 [Example 3, N-(4-Isopropoxypyridin-3-yl)-2-phenylimidazo[1,2-b]pyridazine-8-carboxamide] | 83 | 0.7 | 0.4
7 | O=C(Nc1cnccc1OCC(F)(F)F)c1ccnn2cc(-c3ccccc3)nc12 [Example 4, 2-Phenyl-N-(4-(2,2,2-trifluoroethoxy)pyridin-3-yl)imidazo[1,2-b]pyridazine-8-carboxamide] | 22 | 0.3 | 0.1
8 | CS(=O)(=O)c1ccncc1NC(=O)c1ccnn2cc(-c3ccccc3)nc12 [Example 5, N-(4-(Methylsulfonyl)pyridin-3-yl)-2-phenylimidazo[1,2-b]pyridazine-8-carboxamide] | 120 | 1.5 | 0.4
9 | O=C(Nc1cnccc1-c1ccccc1)c1ccnn2cc(-c3ccccc3)nc12 [Example 6, 2-Phenyl-N-(4-phenylpyridin-3-yl)imidazo[1,2-b]pyridazine-8-carboxamide] | 900 | 3.6 | 1.1
10 | O=C(Nc1cnccc1-c1ccc(F)cc1)c1ccnn2cc(-c3ccccc3)nc12 [Example 7, N-(4-(4-Fluorophenyl)pyridin-3-yl)-2-phenylimidazo[1,2-b]pyridazine-8-carboxamide] | – | 1.6 | 0.6
11 | N#Cc1ccc(-c2ccncc2NC(=O)c2ccnn3cc(-c4ccccc4)nc23)cc1 [Example 8, N-(4-(4-Cyanophenyl)pyridin-3-yl)-2-phenylimidazo[1,2-b]pyridazine-8-carboxamide] | 160 | 1.1 | 0.3
12 | O=C(Nc1cnccc1N1CCCCC1)c1ccnn2cc(-c3ccccc3)nc12 [Example 9, 2-Phenyl-N-(4-(piperidin-1-yl)pyridin-3-yl)imidazo[1,2-b]pyridazine-8-carboxamide] | – | 1.1 | 0.2
13 | N#CC1CCN(c2ccncc2NC(=O)c2ccnn3cc(-c4ccccc4)nc23)CC1 [Example 10, N-(4-(4-Cyanopiperidin-1-yl)pyridin-3-yl)-2-phenylimidazo[1,2-b]pyridazine-8-carboxamide] | – | 0.2 | 0.1
14 | O=C(Nc1cnccc1N1CCC(F)CC1)c1ccnn2cc(-c3ccccc3)nc12 [Example 11, N-(4-(4-Fluoropiperidin-1-yl)pyridin-3-yl)-2-phenylimidazo[1,2-b]pyridazine-8-carboxamide] | 24 | 0.3 | 0.2
15 | O=C(Nc1cnccc1N1CCC(F)(F)CC1)c1ccnn2cc(-c3ccccc3)nc12 [Example 12, N-(4-(4,4-Difluoropiperidin-1-yl)pyridin-3-yl)-2-phenylimidazo[1,2-b]pyridazine-8-carboxamide] | 30 | 0.4 | 0.2
16 | O=C(Nc1cnccc1N1CCOCC1)c1ccnn2cc(-c3ccccc3)nc12 [Example 13, N-(4-Morpholinopyridin-3-yl)-2-phenylimidazo[1,2-b]pyridazine-8-carboxamide] | 36 | 0.4 | 0.2
17 | C[C@@H]1COCCN1c1ccncc1NC(=O)c1ccnn2cc(-c3ccccc3)nc12 [Example 17, (R)—N-(4-(3-Methylmorpholino)pyridin-3-yl)-2-phenylimidazo[1,2-b]pyridazine-8-carboxamide] | 180 | 3.4 | 1

Row | SMILES | IC50 [1] [nM] | IC50 [2] [nM] | IC50 [3] [nM]
18 | C[C@H]1COCCN1c1ccncc1NC(=O)c1ccnn2cc(-c3ccccc3)nc12 [Example 18, (S)—N-(4-(3-Methylmorpholino)pyridin-3-yl)-2-phenylimidazo[1,2-b]pyridazine-8-carboxamide] | 5.7 | 0.3 | 0.3
19 | COc1cncc(NC(=O)c2ccnn3cc(-c4ccccc4)nc23)c1 [Example 19, N-(5-Methoxypyridin-3-yl)-2-phenylimidazo[1,2-b]pyridazine-8-carboxamide] | 3200 | 37 | –
20 | O=C(Nc1cnc(F)cc1N1CCC(F)(F)CC1)c1ccnn2cc(-c3ccccc3)nc12 [Example 20, N-(4-(4,4-Difluoropiperidin-1-yl)-6-fluoropyridin-3-yl)-2-phenylimidazo[1,2-b]pyridazine-8-carboxamide] | 160 | 2.3 | 0.6
21 | CC1CN(c2cc(F)ncc2NC(=O)c2ccnn3cc(-c4ccccc4)nc23)CCO1 (centres unmarked) [Example 21, N-(6-fluoro-4-(2-methylmorpholino)pyridin-3-yl)-2-phenylimidazo[1,2-b]pyridazine-8-carboxamide] | 140 | 0.6 | 0.2
22 | O=C(Nc1cnc(Cl)cc1N1CCC(F)(F)CC1)c1ccnn2cc(-c3ccccc3)nc12 [Example 22, N-(6-Chloro-4-(4,4-difluoropiperidin-1-yl)pyridin-3-yl)-2-phenylimidazo[1,2-b]pyridazine-8-carboxamide] | 2000 | 14 | 2.9
23 | COc1ccccc1-c1cn2nccc(C(=O)Nc3cnccc3N3CCC(F)(F)CC3)c2n1 [Example 23, N-(4-(4,4-Difluoropiperidin-1-yl)pyridin-3-yl)-2-(2-methoxyphenyl)imidazo[1,2-b]pyridazine-8-carboxamide] | 110 | 0.8 | 0.6
24 | COc1ccccc1-c1cn2nccc(C(=O)Nc3cnccc3N3CCOC(C)C3)c2n1 (centres unmarked) [Example 24, 2-(2-Methoxyphenyl)-N-(4-(2-methylmorpholino)pyridin-3-yl)imidazo[1,2-b]pyridazine-8-carboxamide] | 79 | 0.6 | 0.4
25 | O=C(Nc1cnccc1N1CCOCC1)c1ccnn2cc(-c3ccc(C(F)(F)F)cc3)nc12 [Example 25, N-(4-Morpholinopyridin-3-yl)-2-(4-(trifluoromethyl)phenyl)imidazo[1,2-b]pyridazine-8-carboxamide] | 49 | 0.8 | 0.2
26 | CC1CN(c2ccncc2NC(=O)c2ccnn3cc(-c4ccc(C(F)(F)F)cc4)nc23)CCO1 (centres unmarked) [Example 26, N-(4-(2-Methylmorpholino)pyridin-3-yl)-2-(4-(trifluoromethyl)phenyl)imidazo[1,2-b]pyridazine-8-carboxamide] | 120 | 1.4 | 0.6
27 | O=C(Nc1cnccc1N1CCCCC1)c1ccnn2ccnc12 [Example 27, N-(4-(Piperidin-1-yl)pyridin-3-yl)imidazo[1,2-b]pyridazine-8-carboxamide] | 760 | 19.8 | 11.4
28 | O=C(Nc1cnccc1N1CCC(F)(F)CC1)c1ccnn2ccnc12 [Example 28, N-(4-(4,4-Difluoropiperidin-1-yl)pyridin-3-yl)imidazo[1,2-b]pyridazine-8-carboxamide] | 140 | 4.6 | 2
29 | CC1CN(c2ccncc2NC(=O)c2ccnn3ccnc23)CCO1 (centres unmarked) [Example 29, N-(4-(2-Methylmorpholino)pyridin-3-yl)imidazo[1,2-b]pyridazine-8-carboxamide] | 250 | 3.8 | 3.2
30 | O=C(Nc1cnccc1-c1ccc(F)cc1)c1ccnn2cc(C3CC3)nc12 [Example 30, 2-Cyclopropyl-N-(4-(4-fluorophenyl)pyridin-3-yl)imidazo[1,2-b]pyridazine-8-carboxamide] | 380 | 1.9 | 0.4
31 | O=C(Nc1cnccc1N1CCC(F)(F)CC1)c1ccnn2cc(C3CC3)nc12 [Example 31, 2-Cyclopropyl-N-(4-(4,4-difluoropiperidin-1-yl)pyridin-3-yl)imidazo[1,2-b]pyridazine-8-carboxamide] | 120 | 0.4 | 0.2
32 | CC1CN(c2ccncc2NC(=O)c2ccnn3cc(C4CC4)nc23)CCO1 (centres unmarked) [Example 32, 2-Cyclopropyl-N-(4-(2-methylmorpholino)pyridin-3-yl)imidazo[1,2-b]pyridazine-8-carboxamide] | 60 | 2.6 | 0.8
33 | O=C(Nc1cnccc1N1CCOCC1)c1ccnn2cc(-c3cccnc3)nc12 [Example 36, N-(4-Morpholinopyridin-3-yl)-2-(pyridin-3-yl)imidazo[1,2-b]pyridazine-8-carboxamide] | – | 1.3 | 0.4
